Data published in EP1935887A1, “Heterocyclic substituted carbonyl derivatives and their use as dopamine D3 receptor ligands” (Aventis Pharmaceuticals Inc., priority 2001, dated 2002).
pKi: −log10 of the molar value.

Target: T1, Cloned Human Dopamine D3 Receptors (Homo sapiens, UniProt P35462)
T1 construct: expressed in transfected cells; membrane homogenate
Experiment: [N-Methyl-3H]Spiroperidol binding to cloned human dopamine D3 receptors
Settings: Table 2; unit inferred; read-out: d3Ki
Excerpt: [N-Methyl-^3H]Spiroperidol Binding to Cloned Human Dopamine D3 Receptors
This assay measures the in vitro activity of compounds on cloned human dopamine (D3) receptors and predicts the direct dopamine-blocking properties of putative neuropsychiatric agents at human dopamine D3 receptors.
The D3 gene was isolated from a human striatal cDNA library (Stratagene). The gene was sequenced and sub-cloned into the expression vector RC/RSV (Invitrogen). CHO (Chinese Hamster Ovary) cells were stably transfected with 10 µg of the D3/RSV plasmid using the DOTAP method from Boehringer Mannheim and 72 clones that were G418 resistant were isolated. Using mRNA and binding displacement data a single high expressing clone was identified. This clone was then grown in large batches for the purpose of developing a 96 well format assay.
• 1. One plate (10 cm) with approximately 2-3 million D3 cells per plate is incubated with 1 ml of Trypsin-EDTA at room temperature for -2 min or until cells have lifted off plates. Four ml of Ham's F12 + 10% Fetal Bovine Serum + 1% Penicillin/Streptomycin + G418 (400 µg/ml) medium are added to resuspend cells and 1 ml of this is added to each large plate (15 cm) containing 19 ml of the same medium as mentioned above. • 2. The 5 large plates are incubated at 37°C + 5% CO2 for - 3 days or until the cells are confluent. • 3. After these plates are confluent, they are split into 10 large plates. Medium is aspirated off, 2 ml of Trypsin-EDTA are added to each plate and plates are incubated at RT for 2 min or until cells have lifted off the plate. Eight ml of the F12 medium (same medium as #1 above) are added to each plate (10 ml total) to resuspend the cells and 5 ml are transferred to the 2 new plates containing 15 ml of the F12 media. • 4. The 10 large plates are incubated at 37°C + 5% CO2 for ∼ 2 days or until the cells are confluent. • 5. The 10 large plates are split into 60 large plates (using Trypsin-EDTA as #3 except 4 ml of F12 medium are added to resuspend cells and 1 ml is aliquoted to 6 new plates containing 19 ml of F12 medium each). • 6. Plates are incubated at 37°C + 5% CO2 for - 3 days or until cell are confluent. • 7. The 60 large plates are then split into 60 roller bottles (100-150 million cells/bottle). Medium is aspirated off , 2 ml of Trypsin-EDTA are added to each plate and incubated at RT for -2 minutes or until cells have lifted off plates. Eight ml of F12 medium are added to each plate to resuspend cells and the entire 10 ml are added to 1 roller bottle containing 90 ml of the F12 medium. • 8. The 60 roller bottles are immediately placed on their sides and transferred to the roller bottle incubator. They are incubated at 37°C + 5% CO2 for ~ 3-5 days. Cells are spun at 30-40% motor speed in the Forma incubator. • 9. Medium is poured off and cells are washed 2X in PBS. • 10. Cells are then scraped off in 20 ml of PBS and the bottles are rinsed again with 5 ml of PBS to remove any remaining cells. Cells are stored on ice before membrane prepration. • 11. The yield for 60 D3 roller bottles has varied from - 260-500 mg. Note: All tissue culture reagents are from Gibco-BRL.
The cells are harvested into 250 ml centrifuge tubes with 100 volumes of cold phosphate buffered saline (PBS) and spun down (1200xG for 10 min at 4°C). The medium is removed and 100 ml PBS are added to each centrifuge tube, cells are resuspened and spun down again. The PBS is removed and the final pellet is homogenized in an appropriate volume of 10% DMSO with a polytron on ice at a medium setting.
A 200 µl sample membrane homogenate is added to 200 µl of 1% SDS, vortexed and allowed to stand for 5 min. Aliquots (25, 50 and 100 µl) of this mixture are assayed in duplicate following the standard Bio-Rad DC protein assay protocol (kit catalog number 500-0112) and using reagent S. Absorbance readings are made at 750 nm (note: the most accurate protein OD readings are between 0.1-0.5 units). […]

T1 sequence (P35462 whole entry): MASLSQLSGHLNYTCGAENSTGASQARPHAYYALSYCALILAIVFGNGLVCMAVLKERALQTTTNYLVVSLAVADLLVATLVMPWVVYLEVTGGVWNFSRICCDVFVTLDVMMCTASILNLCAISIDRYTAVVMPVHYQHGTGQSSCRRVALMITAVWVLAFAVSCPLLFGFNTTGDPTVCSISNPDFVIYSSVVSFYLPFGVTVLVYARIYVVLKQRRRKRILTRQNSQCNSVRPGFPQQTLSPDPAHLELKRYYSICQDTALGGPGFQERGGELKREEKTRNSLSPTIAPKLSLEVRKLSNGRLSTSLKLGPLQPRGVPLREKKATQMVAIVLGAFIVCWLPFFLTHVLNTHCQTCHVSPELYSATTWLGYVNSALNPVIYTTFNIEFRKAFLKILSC

pKi	Structure (SMILES)
7.67	CN(C(=O)CCCCN1CCN(c2csc3cc(F)ccc23)CC1)c1ccccc1F [compound 822139]
7.89	CN(C(=O)CCCCN1CCN(c2csc3cc(F)ccc23)CC1)c1ccc(C(C)(C)C)cc1 [compound 822140]
7.41	CN(C(=O)CCCCN1CCN(c2csc3cc(F)ccc23)CC1)c1cccc(Oc2ccccc2)c1 [compound 822142]
6.47	O=C(CCCCN1CCN(c2csc3cc(F)ccc23)CC1)N(Cc1ccccc1)c1cccc(Oc2ccccc2)c1 [compound 822143]
6.84	COc1ccc(N(C)C(=O)CCCN2CCN(c3csc4cc(F)ccc34)CC2)cc1 [compound 822144]
6.75	O=C(CCCN1CCN(c2csc3cc(F)ccc23)CC1)Nc1cccc2ccccc12 [compound 822145]
6.66	CC(C)(C)c1ccc(NC(=O)CCCN2CCN(c3csc4cc(F)ccc34)CC2)cc1 [compound 822147]
7.38	O=C(CCCN1CCN(c2csc3cc(F)ccc23)CC1)Nc1cccc(Oc2ccccc2)c1 [compound 822148]
8.09	O=C(NC1CC1)[C@@H]1C[C@H]1CN1CCN(c2csc3cc(C(F)(F)F)ccc23)CC1 [compound 822202]
7.52	O=C(NCc1cccnc1)[C@@H]1C[C@H]1CN1CCN(c2csc3cc(C(F)(F)F)ccc23)CC1 [compound 822203]
7.90	O=C(NCc1ccc2c(c1)OCO2)[C@@H]1C[C@H]1CN1CCN(c2csc3cc(C(F)(F)F)ccc23)CC1 [compound 822204]
6.86	CC1C(CN2CCN(c3csc4cc(C(F)(F)F)ccc34)CC2)C1C(=O)NC1CCC1 (stereo not shown) [compound 825857]
6.89	CC1C(CN2CCN(c3csc4cc(C(F)(F)F)ccc34)CC2)C1C(=O)NC1CCCCC1 (stereo not shown) [compound 825860]
6.86	CC1C(CN2CCN(c3csc4cc(C(F)(F)F)ccc34)CC2)C1C(=O)NCc1ccc(N(C)C)cc1 (stereo not shown) [compound 825871]
6.98	CC1[C@@H](CN2CCN(c3csc4cc(C(F)(F)F)ccc34)CC2)[C@@H]1C(=O)NCC1CC1 (stereo partly shown) [compound 825872]
6.73	C[C@@]1(C(=O)NCc2ccc3ccccc3c2)C[C@H]1CN1CCN(c2csc3cc(C(F)(F)F)ccc23)CC1 [compound 825882]
7.40	C[C@@]1(C(=O)NCc2ccc3c(c2)OCO3)C[C@H]1CN1CCN(c2csc3cc(C(F)(F)F)ccc23)CC1 [compound 825886]
7.04	C[C@@]1(C(=O)NCc2nc3ccccc3[nH]2)C[C@H]1CN1CCN(c2csc3cc(C(F)(F)F)ccc23)CC1 [compound 825887]
7.05	COc1cc(CNC(=O)[C@]2(C)C[C@H]2CN2CCN(c3csc4cc(C(F)(F)F)ccc34)CC2)cc(OC)c1OC [compound 825888]
7.13	C[C@@]1(C(=O)NC2CC2)C[C@H]1CN1CCN(c2csc3cc(C(F)(F)F)ccc23)CC1 [compound 825893]

pKi	Structure (SMILES)
7.23	CN(C)c1ccc(CNC(=O)[C@]2(C)C[C@H]2CN2CCN(c3csc4cc(C(F)(F)F)ccc34)CC2)cc1 [compound 825894]
7.50	C[C@@]1(C(=O)NCC2CC2)C[C@H]1CN1CCN(c2csc3cc(C(F)(F)F)ccc23)CC1 [compound 825895]
7.27	C[C@@]1(C(=O)NCc2ccccc2)C[C@H]1CN1CCN(c2csc3cc(C(F)(F)F)ccc23)CC1 [compound 825896]
6.85	C[C@@]1(C(=O)NCc2ccco2)C[C@H]1CN1CCN(c2csc3cc(C(F)(F)F)ccc23)CC1 [compound 825897]
7.31	C[C@@]1(C(=O)NCc2cccs2)C[C@H]1CN1CCN(c2csc3cc(C(F)(F)F)ccc23)CC1 [compound 825898]
7.37	C[C@@]1(C(=O)NCc2ccc(C(F)(F)F)cc2)C[C@H]1CN1CCN(c2csc3cc(C(F)(F)F)ccc23)CC1 [compound 825899]
6.76	O=C(NCc1ccccn1)[C@@H]1C[C@H]1CN1CCN(c2csc3cc(C(F)(F)F)ccc23)CC1 [compound 826065]
7.22	CN(C)c1ccc(CNC(=O)[C@@H]2C[C@H]2CN2CCN(c3csc4cc(C(F)(F)F)ccc34)CC2)cc1 [compound 826066]
7.71	O=C(NCC1CC1)[C@@H]1C[C@H]1CN1CCN(c2csc3cc(C(F)(F)F)ccc23)CC1 [compound 826067]
7.26	O=C(NCc1ccccc1)[C@@H]1C[C@H]1CN1CCN(c2csc3cc(C(F)(F)F)ccc23)CC1 [compound 826068]
7.57	O=C(NCc1ccco1)[C@@H]1C[C@H]1CN1CCN(c2csc3cc(C(F)(F)F)ccc23)CC1 [compound 826069]
7.90	O=C(NCc1cccs1)[C@@H]1C[C@H]1CN1CCN(c2csc3cc(C(F)(F)F)ccc23)CC1 [compound 826070]
6.78	O=C(NCc1ccc(C(F)(F)F)cc1)[C@@H]1C[C@H]1CN1CCN(c2csc3cc(C(F)(F)F)ccc23)CC1 [compound 826071]
7.20	Cc1cccc(CNC(=O)[C@@H]2C[C@H]2CN2CCN(c3csc4cc(C(F)(F)F)ccc34)CC2)c1 [compound 826072]
7.49	O=C(NC1CCC1)[C@@H]1C[C@H]1CN1CCN(c2csc3cc(C(F)(F)F)ccc23)CC1 [compound 826073]
7.14	C[C@H](NC(=O)[C@@H]1C[C@H]1CN1CCN(c2csc3cc(C(F)(F)F)ccc23)CC1)c1ccccc1 [compound 826074]
7.25	O=C(NCc1cccc2ccccc12)[C@@H]1C[C@H]1CN1CCN(c2csc3cc(C(F)(F)F)ccc23)CC1 [compound 826075]
7.82	O=C(NC1CCCCC1)[C@@H]1C[C@H]1CN1CCN(c2csc3cc(C(F)(F)F)ccc23)CC1 [compound 826076]
7.05	COc1ccc(CNC(=O)[C@@H]2C[C@H]2CN2CCN(c3csc4cc(C(F)(F)F)ccc34)CC2)c(OC)c1 [compound 826077]
6.79	O=C(Nc1cccc2c1CCCC2)[C@@H]1C[C@H]1CN1CCN(c2csc3cc(C(F)(F)F)ccc23)CC1 [compound 826078]

Same assay, conditions: Table 2 part the 10th table; read-out: d3Ki

pKi	Structure (SMILES)
6.93	C[C@@]1(C(=O)N2CCCCC2)C[C@H]1CN1CCN(c2csc3cc(C(F)(F)F)ccc23)CC1 [compound 825891]
8.27	O=C([C@@H]1CCC[C@H]1N1CCN(c2csc3cc(F)ccc23)CC1)N1CCCCC1 [compound 826056]

Same assay, conditions: read-out: d3Ki

pKi	Structure (SMILES)
6.82	O=C(NCc1ccccn1)[C@@H]1CCC[C@H]1N1CCN(c2csc3cc(F)ccc23)CC1 [compound 825825]
7.26	O=C(NC1CC1)[C@@H]1CCC[C@H]1N1CCN(c2csc3cc(F)ccc23)CC1 [compound 825827]
7.66	CN(C)c1ccc(CNC(=O)[C@@H]2CCC[C@H]2N2CCN(c3csc4cc(F)ccc34)CC2)cc1 [compound 825828]
7.19	O=C(NCc1ccccc1)[C@@H]1CCC[C@H]1N1CCN(c2csc3cc(F)ccc23)CC1 [compound 825830]
7.22	O=C(NCc1cccs1)[C@@H]1CCC[C@H]1N1CCN(c2csc3cc(F)ccc23)CC1 [compound 825832]
7.65	Cc1cccc(CNC(=O)[C@@H]2CCC[C@H]2N2CCN(c3csc4cc(F)ccc34)CC2)c1 [compound 825900]
7.04	O=C(NC1CCC1)[C@@H]1CCC[C@H]1N1CCN(c2csc3cc(F)ccc23)CC1 [compound 826057]
7.34	CC(NC(=O)[C@@H]1CCC[C@H]1N1CCN(c2csc3cc(F)ccc23)CC1)c1ccccc1 (stereo partly shown) [compound 826058]
7.57	O=C(NCc1cccc2ccccc12)[C@@H]1CCC[C@H]1N1CCN(c2csc3cc(F)ccc23)CC1 [compound 826059]
7.40	O=C(NC1CCCCC1)[C@@H]1CCC[C@H]1N1CCN(c2csc3cc(F)ccc23)CC1 [compound 826060]
